Series [1] is described as follows: Serum stability study monitored by HPLC. It counts as in vitro ADME, human. As to conditions: 37 °C, HPLC 220 nm. As to the method: The stability of SP1 in human serum was investigated and compared to the stability of its linear precursor P1 and the parent PMI (Fig. 6). The stability of the peptides at 37 °C in human serum was monitored throughout 5 days by HPLC.
Fig. 6 Stability of the precursor peptide P1, the parent PMI and SP1 in human serum at 37 °C, over 5 days, monitored by HPLC at 220 nm. […]
6.2 Serum Stability Studies
P1 and SP1 (10 μL, 10 mM stock in DMSO) were incubated with PBS (1x, 500 μL), human serum (50 μL) and caffeine (10 μL of a 11.25 mg/mL solution in MQ water) at 37 °C for 5 days. At specific intervals, aliquots (25 μL) of the reaction mixture were taken, flash frozen in liquid nitrogen and stored at -20 °C prior to analysis on the same day. Upon unfreezing, the samples were quenched with 25 μL of 96% ethanol and 25 μL of DMSO. The samples were spun at 13400 g for 10 minutes and the supernatant analysed by HPLC analysis, with a 5-95% B gradient (A: 0.05% (v/v) TFA in H2O, B: 0.05% (v/v) TFA in MeCN) over 18 minutes at 220 nm.
Caffeine was used as an internal standard to enable quantification of degradation over time. The experiment was performed in duplicates (Table S2-4). […]

Series [2] addresses T1, p53-interacting domain of human MDM2 (MDM2 6-125) (Homo sapiens, UniProt Q00987).
T1 construct: human MDM2 (MDM26–125)
As to the kind of experiment: MDM2 direct fluorescence polarisation binding assay. Conditions: direct FP, 15 nM tracer, MDM2 titrated from 9.75 uM, 18-point, PBS 0.05% Tween-20 3% DMSO, 1:1 binding model. The protocol: To assess the binding affinity of the precursor peptide P1 and the photoswitchable stapled peptide SP1 for MDM2, a competitive fluorescence polarisation (FP) assay was carried out using the p53-interacting domain of human MDM2 (MDM26–125). […] The inhibitory constants (Ki) for all peptides were subsequently determined. […] This can be attributed the loss in α-helicity observed for P1, in comparison to that of PMI,[34] measured by CD analysis. To induce in situ isomerisation, SP1 was irradiated with red or purple light in FP buffer prior to commencing the experiment. […] The Ki values for each isomer were determined from their corresponding inflection points in the fitted sigmoidal curve. […]
The half-life of the metastable cis SP1 form in FP assay buffer was determined by analytical HPLC analysis (Figure S3). […]
P1 and SP1 (10 μL, 10 mM stock in DMSO) were incubated with PBS (1x, 500 μL), human serum (50 μL) and caffeine (10 μL of a 11.25 mg/mL solution in MQ water) at 37 °C for 5 days. […] The samples were spun at 13400 g for 10 minutes and the supernatant analysed by HPLC analysis, with a 5-95% B gradient (A: 0.05% (v/v) TFA in H2O, B: 0.05% (v/v) TFA in MeCN) over 18 minutes at 220 nm.
Caffeine was used as an internal standard to enable quantification of degradation over time. […]
7 Fluorescence Polarisation (FP) Assay […]
7.1 MDM2 Fluorescence Polarisation Binding Assay […]
(Fluorescence polarisation rises when a labelled molecule tumbles more slowly, as on binding a larger partner.)

Where [3] appears, read: human, human serum diluted in PBS, replicate 1, human serum 50 uL in PBS 500 uL, caffeine internal standard, read-out: Normalised Linker % (peptide remaining).
Setting [4] is: human, human serum diluted in PBS, replicate 2, human serum 50 uL in PBS 500 uL, caffeine internal standard, read-out: Normalised Linker % (peptide remaining).
[5] abbreviates: human, human serum diluted in PBS, 24 h, replicate 2, human serum 50 uL in PBS 500 uL, caffeine internal standard, read-out: Normalised Linker % (peptide remaining).

Like-named read-outs stand apart in the source and are kept apart here. Starred links: 1 amine or outer side, 2 acyl side, 3 side chain; linkers in the order of their positions; H or OH if unused. Positions of bridges follow the written chain, without caps; N, C: chain ends. Residues, ends and D or L forms follow the SMILES beside them. X1 = Clc1cc([*:1])cc(Cl)c1N=Nc1c(Cl)cc([*:2])cc1Cl

T1 sequence (Q00987 6-125 limits assumed): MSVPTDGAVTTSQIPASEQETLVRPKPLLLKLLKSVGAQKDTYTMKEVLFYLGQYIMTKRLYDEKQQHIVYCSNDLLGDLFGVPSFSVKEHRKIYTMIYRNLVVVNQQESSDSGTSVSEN

With `CC(=O)N[C@H](C(=O)N[C@@H](CO)C(=O)N[C@@H](Cc1ccccc1)C(=O)N[C@@H](C)C(=O)N[C@H]1CSc2cc(Cl)c(c(Cl)c2)N=Nc2c(Cl)cc(cc2Cl)SC[C@@H](C(N)=O)NC(=O)[C@H](CO)NC(=O)[C@H](CC(C)C)NC(=O)CNC(=O)[C@H](CC(N)=O)NC(=O)[C@H](Cc2c[nH]c3ccccc23)NC(=O)[C@H](Cc2ccc(O)cc2)NC1=O)[C@@H](C)O` [SP1] (Ac-TSFACYWNGLSC-NH2; linker 5-12 via X1), in series [1] (human serum, 5 days), the “stability in human serum compared with P1 and PMI” value is on record as “markedly improved stability”. Also, in series [1] (setting [3]), the fraction remaining at 2 h, 175 µM turned out to be 88.6%; the fraction remaining at 72 h, 175 µM came out at 79.2%; the share remaining at 120 h, 175 µM amounted to 82.4%. Also, in series [1] (setting [4]), the amount remaining at 2 h, 175 µM worked out at 89%; the amount remaining at 72 h, 175 µM turned out to be 53.6%; the fraction remaining at 120 h, 175 µM was 48%. Also, the amount remaining at 24 h, 175 µM in series [1] (human, human serum diluted in PBS, 24 h, replicate 1, human serum 50 uL in PBS 500 uL, caffeine internal standard, read-out: Normalised Linker % (peptide remaining)) worked out at 82.9%. Also, in series [1] (setting [5]), the share remaining at 24 h, 175 µM was 72.4%.
Take `CC(=O)N[C@H](C(=O)N[C@@H](CO)C(=O)N[C@@H](Cc1ccccc1)C(=O)N[C@@H](C)C(=O)N[C@@H](CS)C(=O)N[C@@H](Cc1ccc(O)cc1)C(=O)N[C@@H](Cc1c[nH]c2ccccc12)C(=O)N[C@@H](CC(N)=O)C(=O)NCC(=O)N[C@@H](CC(C)C)C(=O)N[C@@H](CO)C(=O)N[C@@H](CS)C(N)=O)[C@@H](C)O` [Peptide P1] (Ac-TSFACYWNGLSC-NH2): in series [1] (1 h, replicate 2, without the addition of TCEP, human serum 50 uL in PBS 500 uL, caffeine internal standard), the “Normalised Linker % (peptide remaining)” value is 0.000%. Besides, the fraction remaining at 0.5 h, 175 µM in series [1] (human serum diluted in PBS, 0.5 h, replicate 1, without the addition of TCEP, human serum 50 uL in PBS 500 uL, caffeine internal standard, read-out: Normalised Linker % (peptide remaining)) came to 12.8%. The amount remaining at 1 h, 175 µM in series [1] (human serum diluted in PBS, 1 h, replicate 1, without the addition of TCEP, human serum 50 uL in PBS 500 uL, caffeine internal standard, read-out: Normalised Linker % (peptide remaining)) stood at 0%.
Turning to “Ac-TSFAEYWNNLSP-NH2 [PMI, reference compound]”, the “Normalised Linker % (peptide remaining)” value in series [1] (24 h, replicate 1, human serum 50 uL in PBS 500 uL, caffeine internal standard) was 0.000%. Besides, the amount remaining at 1 h, 175 µM in series [1] (human, human serum diluted in PBS, 1 h, replicate 1, human serum 50 uL in PBS 500 uL, caffeine internal standard, read-out: Normalised Linker % (peptide remaining)) turned out to be 87.2%. Besides, the amount remaining at 1 h, 175 µM in series [1] (human, human serum diluted in PBS, 1 h, replicate 2, human serum 50 uL in PBS 500 uL, caffeine internal standard, read-out: Normalised Linker % (peptide remaining)) is 97.2%. In series [1] (setting [3]), the share remaining at 3 h, 175 µM came out at 72.8%; the amount remaining at 6 h, 175 µM came to 47.4%; the fraction remaining at 9 h, 175 µM was 23.2%. Besides, in series [1] (setting [4]), the share remaining at 3 h, 175 µM came out at 76.2%; the fraction remaining at 6 h, 175 µM is 32.7%; the fraction remaining at 9 h, 175 µM is 11.3%. Also, in series [1] (setting [5]), the share remaining at 24 h, 175 µM was 0%.
In series [2], `CSCC[C@H](NC(=O)[C@H](Cc1ccccc1)NC(=O)[C@H](CCCNC(=N)N)NC(=O)c1ccc2c(c1)C(=O)OC21c2ccc(N(C)C)cc2Oc2cc(N(C)C)ccc21)C(=O)N[C@@H](CC(=O)O)C(=O)N[C@@H](Cc1ccc(O)cc1)C(=O)N[C@@H](Cc1c[nH]c2ccccc12)C(=O)N[C@@H](CCC(=O)O)C(=O)NCC(=O)N[C@@H](CC(C)C)C(N)=O` [FP tracer peptide, TAMRA-RFMDYWEGL-NH2] showed a Kd of 7.6 nM. In other words, the single-digit nanomolar range.

Broadly, the fraction remaining is what is left of the initial amount, in per cent. Broadly, the Kd is the concentration at which binding is half-saturated.

Source of the values: PMC10763561, “Red-light modulated ortho-chloro azobenzene photoswitch for peptide stapling via aromatic substitution” (RSC Chemical Biology, 2023).
